Patent publication US9828326B2, “Amooranin compounds and analogs thereof and related methods of use” (priority 2011, dated 2017)
Marks after values point to notes of the source that are not given here.

Legend:
breast cancer cells = details: cited from earlier work
[1] = mice; cited from earlier work
PARP = assay: RT-PCR of tumor samples, PARP; type: in vivo, Sprague-Dawley rats; details: tumors of AMR-Me + DMBA rats
Method: (§1) Total RNA from 20 mg of tumor sample was extracted using Quick RNA® mini Prep kit following the manufacturer's instructions. The expression levels of apoptotic and anti-apoptotic genes were monitored by reverse transcription-polymerase chain reaction (RT-PCR) using the cDNA verso kit with a temperature scale of 42° C. for 30 min for reverse transcription, and 32 cycles of 94° C. for 30 s, 56° C. for 30 s, and 72° C. for 30 s. The RT-PCR was carried out using the primers: […]
(§2) The PCR products were analyzed on 1% agarose gel and visualized by ethidium bromide staining.

Bcl-2 [2] = assay: Western blot of Bcl-2 in tumor tissue; type: in vivo, Sprague-Dawley rats
Method: (§3) Total proteins were extracted from tumor tissues with lysis buffer (containing 20 mM HEPES, 350 mM NaCl, […], 1 mM MgCh, 20% glycerol, and 1% NP-40), boiled and separated by 4-20% gradient sodium dodecyl sulfate-polyacrylamide gel electrophoresis. The proteins were transferred to polyvinylidene fluoride membranes (Santa Cruz Biotechnology Inc., Santa Cruz, Calif.), and reacted with primary mouse monoclonal antibodies to Bax, Bcl-2, Bel-XL and β-Actin (dilution 1:200) and subsequently with anti-mouse secondary antibodies (dilution 1:1,000) conjugated to horseradish peroxidase. The immunoreactions were detected by an enhanced chemiluminescence detection kit (Them10 Scientific, Rockford, Ill.) and relative intensities of bands on blots were quantitated by autoluminography using a Kodak digital imaging system. Normalization of Western blot was ensured by β-Actin.

[3] = system: proliferating cell nuclear antigen (PCNA); assay: Immunohistochemical detection of PCNA in tumor sections (cell proliferation); type: in vivo, Sprague-Dawley rats
Method: (§4) Serial sections of tumor tissue were used processed for immunohistochemical analysis. Cell proliferation was studied by immunohistochemical detection of proliferating cell nuclear antigen (PCNA) as a proliferation marker. The analysis of apoptotic cells in tumor sections were performed by using TdT-FragEL™ DNA fragmentation detection assay kit (EMD Biosciences, Inc., San Diego, Calif.). The protein expression of Bax (apoptosis inducer),Bcl-2 (apoptosis repressor), ER-a, ER-β, cyclin D1 and β-catenin were determined. The immunohistochemical slides were visualized under a light microscope (BX43, Olympus, Center Valley, Pa.) and at least 1,000 cells/animal were analyzed. Results were expressed as percentage of immunopositive cells.

BAD = assay: RT-PCR of tumor samples, BAD; type: in vivo, Sprague-Dawley rats; details: tumors of AMR-Me + DMBA rats
Method: as §1, §2

Bax [4] = assay: Immunohistochemistry of Bax in mammary tumors; type: in vivo, Sprague-Dawley rats
Method: as §4

[5] = design: species or system Sprague-Dawley rats; details: rat, in vivo, 1.6 mg/kg
Method: The possible toxicity of high dose (1.6 mg/kg) of AMR-Me was studied by investigating hepatic and renal histopathological characteristics using H&E staining.

[6] = system: DMBA-induced mammary tumorigenesis; assay: Chemoprevention of DMBA-induced mammary tumorigenesis; details: for No. of rats with tumors/total rats / Total tumor burden / Tumor Incidence / Average tumor weight: + DMBA; for Average tumor weight: mean±SEM
Description: Following an acclimatization period of one week, rats (−43 days of age) were randomly divided into six groups of 7-11 animals in each. […] Two groups (groups A and B) were maintained on the basal diet without any further treatment, whereas the remaining four groups (groups C, D, E and F) were fed with AMR-Me through oral gavage three times a week (Monday-Wednesday-Friday). AMR-Me was mixed in polyethylene glycol (Sigma-Aldrich, St. Louis, Mo.) and administered by gently securing the animal by holding the skin back of its head and delivering the drug slowly via an animal feeding needle (Popper and Sons, Inc., New Hyde Park, N.Y.) attached to a I-ml syringe (Becton Dickinson, Franklin Lakes, N.J.). This technique ensured the accurate oral dosing of the test material. Three doses of AMR-Me were used: 0.8 mg/kg (for group C), 1.2 mg/kg (for group D) and 1.6 mg/kg (for groups E and F). These three doses (low, medium and high) represent 40, 60 and 80% of calculated maximum tolerated dose (MTD) in rats, respectively. The rat MTD was calculated based on the MTD in mice (3 mg/kg/day).
Following two week of aforementioned treatment regimen, at −57 days of age, mammary carcinogenesis was initiated in all animals belonging to groups B, C, D and E by a single administration of the mammary carcinogen, DMBA at 50 mg/kg body weight by gavage. The DMBA was dissolved in corn oil. This dose of DMBA was chosen so that substantial tumor incidence could be produced but not so high as to overwhelm the chemopreventive action of AMR-Me. Oral treatment of rats with AMR-Me in groups C, D, E and F were continued for 16 weeks following the DMBA administration (i.e., a total period of 18 weeks). Food and water intake as well as behavioral patterns were monitored daily and body weights of animals were recorded every alternate week.
Animals were palpated along the milk line twice a week starting 4 weeks following DMBA treatment to detect the presence of mammary tumors. All animals were sacrificed at 16 weeks post-DMBA treatment (i.e., 18 weeks following the start of the experiment).
Following an overnight fast, animals from each group were anesthetized between 09:00 and 11:00 h by intramuscular injection of 40-87 mg/kg ketamine and 5-13 mg/kg xylazine. The skin was dissected out to expose mammary tumors. The tumors (approximated spheres) were separated from mammary gland parenchyma, carefully excised, rinsed with phosphate-buffered saline (pH 7.4) to flush out any blood, blotted dry on a paper towel, weighed, and photographed. Each tumor was measured in two perpendicular directions with a vernier caliper to the nearest mm to obtain an average diameter. The representative tumor tissue as well liver and kidney were harvested and either immediately flash frozen in liquid nitrogen for molecular work or fixed in 4% paraformaldehyde. Later, serial tumor sections (−15-μm thick) were prepared using a microtome. These sections were used for histopathological assessment by hematoxylin and eosin (H&E) staining.

[7] = system: apoptotic cells in tumor sections; assay: TdT-FragEL DNA fragmentation detection assay in tumor sections (apoptosis); type: in vivo, Sprague-Dawley rats
Method: as §4

CASP3 = assay: RT-PCR of tumor samples, CASP3; type: in vivo, Sprague-Dawley rats; details: tumors of AMR-Me + DMBA rats
Method: as §1, §2

BCL2 = assay: RT-PCR of tumor samples, BCL2; type: in vivo, Sprague-Dawley rats; details: tumors of AMR-Me + DMBA rats
Method: as §1, §2

β-catenin = assay: Immunohistochemistry of β-catenin in mammary tumors; type: in vivo, Sprague-Dawley rats; details: 0.8 mg/kg or 1.2 mg/kg + DMBA
Method: as §4

[8] = General observations: body weight, food and water intake; type: in vivo, Sprague-Dawley rats
Method: The DMBA was dissolved in corn oil.

Bax [9] = assay: Western blot of Bax in tumor tissue; type: in vivo, Sprague-Dawley rats; details: all doses (0.8, 1.2, 1.6 mg/kg) + DMBA
Method: as §3

Bax [10] = assay: RT-PCR of tumor samples, BAX; type: in vivo, Sprague-Dawley rats; details: tumors of AMR-Me + DMBA rats
Method: as §1, §2

CASP7 = assay: RT-PCR of tumor samples, CASP7; type: in vivo, Sprague-Dawley rats; details: tumors of AMR-Me + DMBA rats
Method: as §1, §2

Bcl-2 [11] = assay: Immunohistochemistry of Bcl-2 in mammary tumors; type: in vivo, Sprague-Dawley rats
Method: as §4

ER-α = assay: Immunohistochemistry of ER-α in mammary tumors; type: in vivo, Sprague-Dawley rats; details: low (0.8 mg/kg) or medium (1.2 mg/kg) dose + DMBA
Method: as §4

cyclin D1 = assay: Immunohistochemistry of cyclin D1 in mammary tumors; type: in vivo, Sprague-Dawley rats; details: medium (1.2 mg/kg) or high (1.6 mg/kg) dose + DMBA, vs DMBA control
Method: as §4

[12] = system: breast cancer MCF-7 cells; details: in vitro; cited from earlier work
[13] = medium (1.2 mg/kg) or high (1.6 mg/kg) dose + DMBA
[14] = group C: 0.8 mg/kg oral three times a week, 18 weeks
[15] = group D: 1.2 mg/kg oral three times a week, 18 weeks
[16] = group E: 1.6 mg/kg oral three times a week, 18 weeks

CC1(C)CC[C@]2(C(=O)O)CC[C@]3(C)C(=CC[C@@H]4[C@@]5(CO)CCC(=O)C(C)(C)[C@@H]5CC[C@]43C)[C@@H]2C1 [AMR, 25-Hydroxy-3-oxoolean-12-en-28-oic Acid]
anti-neoplastic activity (breast cancer cells; plant-derived compound): relatively weak

COC(=O)[C@]12CCC(C)(C)C[C@H]1C1=CC[C@@H]3[C@@]4(CO)CCC(=O)C(C)(C)[C@@H]4CC[C@@]3(C)[C@]1(C)CC2 [AMR-Me, 25-hydroxy-3-oxoolean-12-en-28-oic Acid Methyl Ester]
maximum tolerated dose (MTD) [1]: 3 mg/kg/day
PARP mRNA level (RT-PCR) (PARP): up-regulation
Bcl-2 expression (Western blot) (Bcl-2 [2]; high dose 1.6 mg/kg + DMBA): complete abrogation
Bcl-2 expression (Western blot) (Bcl-2 [2]; low or medium dose + DMBA): did not modify Bel-2 expression
proliferation of tumor cells (PCNA-positive cells) ([3]; low dose 0.8 mg/kg + DMBA): marginal reduction in the proliferation of tumor cells
PCNA labeling index (LI) ([3]; medium (1.2 mg/kg) or high (1.6 mg/kg) dose + DMBA, vs DMBA control): statistically significant (P<0.001) decrease
BAD mRNA level (RT-PCR) (BAD): up-regulation
frequency of Bax-immunopositive cells (Bax [4]; low dose 0.8 mg/kg + DMBA): extremely low
Bax/Bcl-2 ratio (Bax [4]; [13]): elevated the Bax/Bcl-2 ratio in a dose-responsive manner
Bax-positive cells (Bax [4]; medium (1.2 mg/kg) or high (1.6 mg/kg) dose + DMBA, vs DMBA alone): significantly (P<0.001) increased
hepatotoxicity (hepatic histopathology) [5]: no hepatotoxicity was observed
nephrotoxicity (renal histopathology) [5]: did not exhibit any nephrotoxicity
inhibition of proliferation of several breast cancer cells, potency (breast cancer cells; relative to the parent compound): greater potency than the parent compound AMR
No. of rats with tumors/total rats [6, 14]: 5/8
Total tumor burden [6, 14]: 57.5 g
Tumor Incidence [6, 14]: 62%
Average tumor weight [6, 14]: 11.5 ± 4.9 ^ g
No. of rats with tumors/total rats [6, 15]: 2/7
Total tumor burden [6, 15]: 9.6 g
Tumor Incidence [6, 15]: 28^a %
Average tumor weight [6, 15]: 3.2 ± 1.5^b g
No. of rats with tumors/total rats [6, 16]: 2/7
Total tumor burden [6, 16]: 0.8 g
Tumor Incidence [6, 16]: 28^a %
Average tumor weight [6, 16]: 0.38 ± 0.03^b g
visible mammary tumors in AMR-Me control ([6]; group F: 1.6 mg/kg without DMBA, 18 weeks): no visible mammary tumors
improvement of cellular architecture in tumor tissue (H&E) ([6]; high dose 1.6 mg/kg + DMBA): substantial improvement of cellular architecture
size of tumors ([6]; high dose 1.6 mg/kg + DMBA): striking reduction in size
size of tumors ([6]; low dose 0.8 mg/kg + DMBA): reduced the size of tumors
tumor histopathological features (H&E) ([6]; low dose 0.8 mg/kg + DMBA): did not modify tumor histopathological features
improvement of cellular architecture in tumor tissue (H&E) ([6]; medium dose 1.2 mg/kg + DMBA): moderate
size of tumors ([6]; medium dose 1.2 mg/kg + DMBA): further decrease in the size of tumor
apoptotic index (AI) ([7]; low dose 0.8 mg/kg + DMBA, vs DMBA control): no noticeable difference
apoptotic index (AI) ([7]; medium (1.2 mg/kg) or high (1.6 mg/kg) dose + DMBA, vs DMBA): significant increase (P<0.001)
CASP3 mRNA level (RT-PCR) (CASP3): up-regulation
BCL2 mRNA level (RT-PCR) (BCL2): down-regulation
cytosolic β-catenin expression (β-catenin): significant (P<0.001) decrease
nuclear β-catenin expression (β-catenin): significant (P<0.001) decrease
body weights among rat groups ([8]; 0.8, 1.2 or 1.6 mg/kg, any time point): No significant difference
food and water intakes ([8]; normal animals, 1.6 mg/kg body weight, 18 weeks): unaltered
Bax expression (Western blot) (Bax [9]): elevated the Bax expression
BAX mRNA level (RT-PCR) (Bax [10]): up-regulation
CASP7 mRNA level (RT-PCR) (CASP7): up-regulation
expression of cytoplasmic Bcl-2 (Bcl-2 [11]; low dose 0.8 mg/kg + DMBA): not altered
Bcl-2-positive cells (Bcl-2 [11]; [13]): significant (P<0.005 or 0.001) reduction
intra-tumor expression of ER-α (ER-α): reduced
ratio of ER-α/ER-β (ER-α): concomitant drop
percentage of cyclin D1-positive cells (cyclin D1): significant (P<0.05 or 0.001) decrease
potency against MCF-7 cells, concentrations [12]: down to the nanomolar range
